According to patent US20220047569A1, “METHOD AND COMPOUND FOR USE, IN TREATING AND/OR PREVENTING NETOSIS” (Jubilant EpiPad LLC, priority 2020, published 2022):

Key:
[1] = system: Bleomycin (BLM)-induced mice fibrosis; test: Bleomycin induced lung fibrosis model; type: in vivo, C57BL/6 male mice; conditions: 50 mg/kg, PO, BID
Description: Bleomycin (BLM)-induced mice fibrosis is a well-established animal model used to study pathogenesis of lung fibrosis and to estimate the potential anti-fibrotic agents. C57BL/6 male mice at 6-8 weeks of age were purchased from vivo biotech India (under the license from Taconic). The procedures involving the care and use of animals in the study was reviewed and approved by the Institutional Animal Care and Use Committee (IAEC/JDC/2018-161R) prior to conduct. During the study, the care and use of animals was in accordance with the principles outlined in the Guide for the Care and Use of Laboratory Animals, 8th Edition, 2010 (National Research Council) and every effort was made to minimize suffering. The animals were acclimatized for 7 days prior to experimental use. Mice were caged with free access to food and fresh water in a temperature-controlled room (22° C.-24° C.) on a 12 h light/dark cycle. Pulmonary fibrosis was induced by invasive method in animals using single intra-tracheal administration of 50 μg bleomycin prepared in 50 μL of saline under isoflurane anaesthesia. […] Animals were monitored and evaluated for their body weight loss. […] Fibronectin was measured as a PD biomarker by RT-qPCR and fold change in mRNA level was calculated after normalizing to GAPDH. […] The Modified Ashcroft Index score was determined for the vehicle-treated control mice and the test compound treated mice.

DSS-induced colitis = test: Dextran sulfate sodium (DSS) induced colitis model; type: in vivo, C57BL/6 male mice; conditions: PO BID
Description: Ulcerative colitis (UC) is an intermittent inflammatory bowel disease of the colonic mucosa, with periods of exacerbated symptoms (the active phase of the disease), and periods that are relatively symptom-free (remission phase of disease). Among various chemical induced colitis models, DSS-induced colitis model is widely used because of its simplicity and many similarities with human ulcerative colitis. C57BL/6 male mice at 6-8 weeks of age were purchased from vivo biotech India (under the license from Taconic). The procedures involving the care and use of animals in the study was reviewed and approved by the Institutional Animal Care and Use Committee (IAEC/JDC/2018-161R) prior to conduct. During the study, the care and use of animals was in accordance with the principles outlined in the Guide for the Care and Use of Laboratory Animals, 8th Edition, 2010 (National Research Council) and every effort was made to minimize suffering. The animals were acclimatized for ˜10 days prior to experimental use. Mice were caged with free access to food and fresh water in a temperature-controlled room (22° C.-24° C.) on a 12 h light/dark cycle. On the day of DSS administration (day 0), labelled (using ear punch or any other convenient method) groups of control and experimental mice should be weighed and, if required, average group weight equilibrated so as to eliminate any significant weight difference between groups. Normal control animals were provided with regular drinking water and disease control animals were provided with 2.25% DSS in drinking water for 5 days (Day 1 to Day 5) and next 5 days, both the groups received regular drinking water (Day 6 to Day 10). DSS was replaced with fresh DSS formulation once in 2.5 days. Animals were dosed with Vehicle (0.5% Methyl cellulose in PBS+0.025% Tween-80), Compound 143, PO, bid and Fingolimod, PO, qd. Administration of 2.25% DSS in drinking water induced significant ulcerative colitis leading to ˜5-fold disease induction in mice of disease control group compared to normal control. […]

EMT-6 cells = test: Murine breast cancer efficacy model, EMT-6 allograft; type: in vivo, Balb/C female mice
Experimental: PAD4 is highly expressed in malignant tumours of various cell types, Here, the mouse mammary carcinoma of 4T1 and EMT6 cells were used as an experimental model. Mouse 4T1, and EMT-6, a breast cancer cell line was sourced from American Type Culture Collection (ATCC), USA. Cells were grown according to the product information. To establish allografts, the cells were harvested by trypsinization when they reached around 70 to 80% confluence. After harvesting, Balb/C female mice (7-8 weeks) were implanted with 4T1 (1 million cells/site) and EMT-6 (0.5 million cells/site) subcutaneously in the dorsal right flank of mice using a 1 mL BD syringe attached to a 24-gauge needle. When the tumors became palpable tumor measurement was initiated and at an approximate tumor volume of ˜110 and 93 mm3, respectively. Animals were randomized into different treatment groups keeping tumor volume and the number of animals/group similar across the groups and compound 143 treatment was initiated. […]
(§1) Tumor dimensions (length and breadth) were measured on days 1 (animal randomization based on tumor volume) and thrice weekly thereafter until study termination.
Tumor volumes were calculated using the formula (b2*1)*0.52 where l=length, b=breadth (Dusan Djokovic et al., BMC Cancer, 2010, 10:641). […]

4T1 cells = test: Murine breast cancer efficacy model, 4T1 allograft; type: in vivo, Balb/C female mice; conditions: for TGI (percent tumor growth inhibition): BID, PO, day 14, 4T1
Experimental: PAD4 is highly expressed in malignant tumours of various cell types, Here, the mouse mammary carcinoma of 4T1 and EMT6 cells were used as an experimental model. Mouse 4T1, and EMT-6, a breast cancer cell line was sourced from American Type Culture Collection (ATCC), USA. Cells were grown according to the product information. To establish allografts, the cells were harvested by trypsinization when they reached around 70 to 80% confluence. After harvesting, Balb/C female mice (7-8 weeks) were implanted with 4T1 (1 million cells/site) and EMT-6 (0.5 million cells/site) subcutaneously in the dorsal right flank of mice using a 1 mL BD syringe attached to a 24-gauge needle. When the tumors became palpable tumor measurement was initiated and at an approximate tumor volume of ˜110 and 93 mm3, respectively. Animals were randomized into different treatment groups keeping tumor volume and the number of animals/group similar across the groups and compound 143 treatment was initiated. The procedures involving the care and use of animals in the study was reviewed and approved by the Institutional Animal Care and Use Committee (IAEC/JDC/2021/246R) prior to conduct. During the study, the care and use of animals was in accordance with the principles outlined in the Guide for the Care and Use of Laboratory Animals, 8th Edition, 2010 (National Research Council) and every effort was made to minimize suffering. The animals were acclimatized for 7 days prior to experimental use. Mice were caged with free access to food and fresh water in a temperature-controlled room (22° C.-24° C.) on a 12 h light/dark cycle.
as §1
Tumor volumes were calculated using the formula (b2*1)*0.52 where l=length, b=breadth (Dusan Djokovic et al., BMC Cancer, 2010, 10:641).
The percent tumor growth inhibition (% TGI) as a function of anti-tumor efficacy were computed with respect to untreated vehicle control by comparing to the tumor volumes of day 1. […]

Structure (SMILES): N[C@@H]1CCCN(C(=O)c2cc3c4c(c2)nc(-c2cc5cccc(Cl)c5n2CC2CC2)n4CCO3)C1 [Compound 143, (R)-(3-aminopiperidin-1-yl)(2-(7-chloro-1-(cyclopropylmethyl)-1H-indol-2-yl)-3,4-dihydro-5-oxa-1,2a-diazaacenaphthylen-7-yl)methanone]
- Lung weight ([1]; day 0 to 14, prophylactic): reduction in lung weight comparable to standard of care Nintedanib
- Fibronectin mRNA ([1]; lung, RT-qPCR normalized to GAPDH): stronger reduction of fibronectin mRNA as compared to Nintedanib
- Disease reversal compared to disease control (DSS-induced colitis; 12.5 mg/kg): 8.7%
- Disease reversal compared to disease control (DSS-induced colitis; 25 mg/kg): 26.6%
- Disease reversal compared to disease control (DSS-induced colitis; 50 mg/kg): 45.5%
- TGI (percent tumor growth inhibition) (EMT-6 cells; 50 mg/kg, BID, PO, day 13, EMT-6): 42.6%
- Body weight changes (EMT-6 cells; EMT-6 bearing mice, BID PO for 13 days): no significant body weight changes
- TGI (percent tumor growth inhibition) (4T1 cells; 25 mg/kg): 24.3%
- TGI (percent tumor growth inhibition) (4T1 cells; 50 mg/kg): 48.8%
- Body weight changes (4T1 cells; 4T1 bearing mice, BID PO for 14 days): no significant body weight changes
